Series [1] in a line: Differential Scanning Calorimetry of mixtures. It is filed as physicochemical. In general terms: DSC measures the heat that a sample takes up or gives off during a temperature scan.
Protocol: Differential Scanning calorimetry (DSC 1, Mettler Toledo, Greifensee, Switzerland) is used to characterize structure and phase behavior of mixtures of CF3(CF2)5—CH(CH3)—(CH2)5—CH3 and CF3(CF2)5(CH2)7CH3. DSC was employed to obtain data on transitions by temperature rising scans with heating rate of 1° C./min. Sealed standard aluminum crucibles (40 μl, Mettler Toledo) were used.
Series [2] in a line: Refractive index of mixtures. It is filed as physicochemical. To be noted: FIG. 2, in words. As for the experimental part: The refractive index of the mixtures was also determined. For topically applied ophthalmic compositions, the refractive index of the composition should preferably similar, or adapted to that of the eye and lens, for instance as close to that of physiological tear fluid as possible. If the refractive index of a composition is not similar, when applied to the surface of the eye, a patient may experience blurring or impaired vision. […] By varying the amount of this semifluorinated alkane in the mixture, it may also be feasible to adapt the composition to the requirements of the intended ophthalmic use, for instance adapting to a patient with an altered tear fluid composition and refractive index, due to an eye condition and/or age.

A short description of series [3]: Evaporation time of mixtures. Format: physicochemical. To be noted: FIG. 1, in words. The procedure: The evaporation time of mixtures of the semifluorinated alkane CF3(CF2)5(CH2)7CH3 and CF3(CF2)5—CH(CH3)—(CH2)5—CH3 was evaluated. A droplet of 10 μL volume of each mixture was placed on a glass surface at room temperature. Time until evaporation was recorded by video-monitoring.

The next series deals with Rabbit corneas. The series can be described thus: Ex Vivo Eye Irritation Test (EVEIT), corneal healing. The procedure: Anim., 2008 (36) p 25-32; and N. Schrage et al, Graefes Arch Clin Exp Ophthalmol 2012 (250), 1330-1340).
Method. Rabbit corneas were obtained and placed in an artificial anterior ocular chamber which was gently filled with serum-free minimal essential medium (Eagle's MEM) containing Earle's salts and HEPES buffer for nutrition. The medium was contstantly replenished by a micropump to imitate the physiological condition of the eye. The culture chambers were held at 32° C. under normal air without supplementary CO2 and >95% relative humidity. Five corneas per test substance (n=5) were used except for the postive control with which two corneas (n=2) were tested.
After 12 h of stabilization in the culture chamber, the corneas were evaluated by microscopy and corneas with intact epithelium and without opacities were selected. Four small abrasions (2.3-4.3 mm^2) were applied to the surface of the selected corneas with a cornea drill. All defects were monitored by fluorescein sodium staining (0.17% aq. solution) and microscopy.
The test substances were administered one hour after induction of the corneal erosion and were applied six times daily onto the apex of the corneas (30-50 μL every four hours). A soft-tipped cannula, with continuous suction was placed on the lowest part of the corneoscleral region within the culturing chamber to remove any excess fluid. Experiments were terminated after 3 days of application. Biomicroscopic images of the corneas were taken daily to document the corneal healing process using a phase-contrast microscope integrated camera (KY-F1030U, JVC, (Bad Vilbel, DE) mounted on a Z16 APO Microscope (Wetzlar, DE)). All defects were monitored by fluorescein sodium stains (0.17% aq. solution) with yellow green fluorescence indicating the areas of epithelial defects. Erosion sizes were determined using a software tool of the microscope (DISKUS). At the end of the 3 days, the experiment was terminated and all corneas were fixed in 3.7% formaldehyde and stained with a hematoxylin-eosin dye for microscopic evaluation. To monitor the metabolic activity of the cornea, glucose and lactate concentrations were photometrically quantified in the outflow medium from the artificial anterior chambers.

Where [4] appears, read: hematoxylin-eosin stained corneas after 3 days of application.

“Also recorded” adds a separate entry of the source.

Consider `CCCCCCC(C)C(F)(F)C(F)(F)C(F)(F)C(F)(F)C(F)(F)C(F)(F)F` (centres unmarked) [CF3—(CF2)5—CH(CH3)—(CH2)5—CH3, 2-perfluorohexyloctane], for which, in series [1] (in words), the “effect on melting enthalpy when present in a mixture with F6H8” value is on record as “decreased” and the “effect on melting temperature when present in a mixture with F6H8” value was “significant reduction in the melting temperature”. In addition, in series [2], the “effect of increased content on refractive index of the mixtures” value was “increasing refractive index value”. Also, the “effect of increasing percentage on evaporation time of the mixtures” value in series [3] is on record as “decreases the evaporation time”.
Regarding `CCCCCCCCC(F)(F)C(F)(F)C(F)(F)C(F)(F)C(F)(F)C(F)(F)F` [Composition 0, 1-perfluorohexyloctane], in series [1] (DSC, heating rate 1° C./min), the “Low temperature transition Endset” value was −38.32 °C, the “Low temperature transition Onset” value is −45.47 °C, the “Low temperature transition Peak” value is −40.37 °C and the “Low temperature transition ΔH” value is -0.69 J/g. Moreover, in series [1] (DSC, heating rate 1° C./min), the “Melting transition Endset” value was −2.14 °C, the “Melting transition Onset” value was −6.33 °C and the “Melting transition Peak” value was −4.53 °C. The “Melting transition ΔH” value in series [1] (DSC, heating rate 1° C./min, label = wt % CF3—(CF2)5—CH(CH3)—(CH2)5—CH3 in mixture with CF3(CF2)5(CH2)7CH3) was -36.57 J/g.
Take benzalkonium chloride [0.01% BAC]: the “Corneal Erosion Size, Mean (SD)” value is listed as 11.57 (0.86) mm^2 with Rabbit corneas (Day 0 (before application)); 5.91 (0.28) mm^2 in the series on Rabbit corneas (Day 1, applied six times daily, 30-50 μL); 8.74 (7.6) mm^2 in the series with Rabbit corneas (Day 2, applied six times daily, 30-50 μL); 17.46 (6.43) mm^2 with Rabbit corneas (Day 3, applied six times daily, 30-50 μL). In addition, in the series with Rabbit corneas (setting [4]), the “Day 3 Histological Observations: Descemet membrane and endothelium” value is “Descemet membrane is present with intact endothelium”. The “Day 3 Histological Observations: epithelium, stroma, corneal structure” value in the series on Rabbit corneas (setting [4]) was “Severe alterations of the superficial cornea with disintegration of; also recorded: Reduced staining of background substance indicating chemical”. Besides, in the series with Rabbit corneas (setting [4]), the “Day 3 Histological Observations: keratocytes” value is given as “Severe reduction in number of keratocyte cells which also appear”. Also, the “course of the induced epithelial erosions/lesions” value in the series with Rabbit corneas (over the three days of the experiment, in words) is “progressive increase”.

The record behind these values is patent US12128010B2, “Semifluorinated compounds and their compositions” (NOVALIQ GMBH, priority 2015, dated 2024).
